This is an account of results in paper PMC3375010, “The TRPV5/6 calcium channels contain multiple calmodulin binding sites with differential binding properties” (Journal of Structural and Functional Genomics, 2012).

“Also recorded” adds a separate entry of the source.

Series [1] in a line: Peptide solubility / aggregation. It is filed as physicochemical. The following applies: for solubility: V5p2: at concentrations desired for NMR, V5p3, V6p3: 10 mM CaCl2, 10 mM ammonium acetate pH 5.0; for aggregation / precipitation: aqueous buffer versus water, 2-mercaptoethanol 10 mM tested. The protocol:
(§1) For the titration by synthetic peptides, ^15N-labeled CaM samples with concentration 0.3–0.7 mM were used. CaM and peptides were dissolved in either KCl 50 mM, CaCl2 10 mM, Tris 20 mM pH 7.0 (V5p1s, V6p1, V5p4, V5p5), or 10 mM CaCl2, 10 mM ammonium acetate buffer pH 5.0 (V5p3 and V6p3), or MilliQ water with 10 mM 2-mercaptoethanol (V5p2 and V5p2n).
^15N-^1H-HSQC spectra of the complexes of CaM with V5p2 at molar ratios 1:0 (black), 1:0.75 (red) and 1:1.5 (blue) are presented in Fig. 5a.
The binding patterns observed for CaM in the two complexes were also very similar (supplementary Fig. 4sC). Low pH (5.0) might influence CaM-peptide interactions but we have not studied the effect of pH in details. As both peptides contain neither tryptophan, nor tyrosine residues, fluorescence measurements were not possible using the native peptides.

Series [2] addresses T1, CaM (calmodulin) (Xenopus laevis, UniProt P0DP33).
T1 construct: made in house; host or cells: E. coli AR58 (pTNcoI2 plasmid)
The experiment in a line: 15N-1H-HSQC NMR titration of 15N-labelled CaM with peptide (with 1D 15N-filtered NMR). It is filed as binding, Xenopus laevis (identical to mammalian). The following applies: 35°C; for NMR exchange regime of CaM-peptide complex: 15N-1H-HSQC, V5p4, V5p5: CaM buffer pH 7.0, V5p2, V5p2n: H2O with 10 mM 2-mercaptoethanol; for CaM NMR line broadening: CaM:peptide 1:1.5 molar ratio, H2O with 10 mM 2-mercaptoethanol; for CaM binding affinity (words, from NMR): 1:0–1:3; for CaM domains involved in binding (overall): V6p1: first and second event, pH 7.0, V5p3: 1:1, pH 5.0. The protocol: as §1
(§2) The binding of target peptides to CaM was monitored by 2D ^15N-^1H-HSQC spectra. The combination of 1D ^15N-filtered and 1D ^15N-^1H-HSQC experiments was used to assess the ratio of bound and non-bound peptides. ^15N-T1rho experiments were used to estimate the transverse relaxation rates of the CaM resonances during the titration. For sequential assignment of CaM 3D HNCACB and CBCA(CO)NH experiments were performed.
All spectra were recorded at 308 K on Varian Inova 800 MHz or Bruker Avance III 600 MHz spectrometers, each equipped with a cryogenic probe.
All NMR spectra were processed using the NMRpipe suite and analyzed by the program CcpNmr Analysis.

Series [3] has as its target T1, CaM (calmodulin). The experiment in a line: Tryptophan fluorescence of the peptide upon titration by CaM. It is filed as binding, Xenopus laevis (identical to mammalian). The settings on record: room temperature; for shift of emission maximum upon CaM addition / emission maximum without CaM (start of shift): excitation 282 nm; for shift of emission maximum upon CaM addition: emission 295–405 nm, peptide:CaM 1:0–1:2; for emission maximum without CaM (start of shift): V6p1 W695: CaM buffer pH 7.0, V5p2 W593: H2O with 2-mercaptoethanol pH 7.0 (Table 1), before CaM addition; for emission maximum: V5p2, W593. The protocol:
Fluorescence measurements were performed using a Varian Cary Eclipse fluorescence spectrophotometer (Agilent Technologies, USA), with emission and excitation slit width set to 5 nm. Tryptophan excitation wavelength was set to 282 nm and emission spectra were recorded in the range 295–405 nm. Each spectrum was recorded three times and averaged. Fluorescence intensity contribution from CaM and background intensity from buffer and cuvettes were subtracted for each spectrum. The recorded emission intensities were corrected for dilution effects. All measurements were carried out at room temperature. CaM and peptides stocks were prepared in 50 mM KCl, 10 mM CaCl2 20 mM Tris pH 7.0 buffer. […] For each titration point, the samples were kept at room temperature for 30 min prior to measurements to ensure that the equilibrium was reached.

Series [4] concerns the target T1, CaM (calmodulin). Briefly: Isothermal titration calorimetry of CaM with peptide. The format is binding, Xenopus laevis (identical to mammalian). The text has this:
Peptides corresponding to the amino acid residues 133–154, 310–330, 401–428, 591–612, 696–712 and 696–729 of human TRPV5 and 401–428 and 690–716 of human TRPV6 (cf. Table 1) were purchased from Peptides & elephants GmbH (Potsdam, Germany) and GenicBio Limited (Shanghai, China). All peptides were purified by HPLC (>95% purity) and analyzed by mass-spectrometry. Prior to all experiments, to remove residual TFA, the peptides were dialyzed against an appropriate buffer (dialysis tubing Spectra/Por® 7 with 1 K MWCO; Spectrum Labs, USA).
Expression was induced by a temperature shift from 30 to 42°C and 3–4 h after induction cells were harvested and lysed. Calmodulin was purified by weak anion exchange (DEAE, GE Lifesciences) and affinity chromatography (Phenylsepharose, GE Lifesciences). Purified protein was dialyzed against 1/100 of KCl 50 mM, CaCl2 10 mM, Tris 20 mM pH 7.0, freeze-dried and stored at −20°C. Unless specified differently, all chemicals were obtained from Sigma-Aldrich, USA). Uniformly ^13C and/or ^15N-labelled samples were produced by growing the cells in M9 minimal medium containing 4 g/L ^13C6-glucose and/or 1 g/L ^15N-ammonium chloride (Buchem BV, Apeldoorn, The Netherlands) as the sole source of carbon and/or nitrogen, respectively.
ITC samples were prepared by dissolving CaM and peptides in 50 mM KCl, 10 mM CaCl2, 20 mM Tris pH 7.0 buffer. The concentration of CaM in the cell was 15–20 μM, the concentration of peptides in the syringe exceeded the CaM concentration by 15–20 times. Protein concentrations were determined using a Nanodrop spectrophotometer ND-1000 (Isogen Life Science). ITC experiments were carried out using an ITC200 device (MicroCal Inc., Northampton, MA, USA). After thermal equilibration at 298 K, thirty-nine 1 μl serial injections were performed at 500 rpm stirring speed with an injection spacing of 4 min. To correct the experimental binding isotherm for background heat effects, we also titrated peptide into buffer. All measurements were performed at least three times to determine the optimal experimental conditions with respect to signal-to-noise ratio. In all cases, experiments were consistent and reproducible. ITC data analysis was performed using the Origin 7.0 software supplied by the manufacturer of the ITC. All data were analyzed with “one binding site model” and the “sequential binding site model” implemented in this software package.

Series [5] has as its target Calmodulin (Homo sapiens) (UniProt P0DP23). The experiment in a line: fluorescence anisotropy. The following applies: cited from earlier work.
Series [6] deals with T1, CaM (calmodulin). The experiment in a line: 15N-T1rho relaxation of CaM (oligomeric state). Also noted: species or system Xenopus laevis (identical to mammalian). The settings on record: CaM:V5p2 1:1.5 complex. The protocol:
as §2
At CaM:V5p2 1:0.75 molar ratio, a significant number of the CaM peaks are doubled and for some peaks substantial line broadening is observed. […] Using the envelope of the well-dispersed, upfield-shifted amide resonances, we obtained T1rho values of ~100 ms for free Ca^2+/CaM which decreased to ~80 ms for CaM in the 1:1.5 complex.

Where [7] appears, read: 15N-1H-HSQC titration, CaM buffer pH 7.0.
Setting [8] is: sequential binding sites model, N fixed to 2, pH 7.0, 298 K.

Consider “GVEVPDIFRMGVTRFFGQTILGGPFHVL [V6p3, TM23-loop peptide, residues 401–428 of TRPV6, L401G]”, for which the “solubility” value in series [1] is “only soluble at pH 5.0”.
For the substance “ELWRAQVVATTVMLERKLPRSL [V5p2n, V5p2 peptide featuring a C611S mutation]”, the “aggregation / precipitation” value in series [1] is on record as “Neither of these two conditions appears to alter the observed behavior”. On CaM (calmodulin) [2], the “NMR exchange regime of CaM-peptide complex” value (shortened to “NMR exchange regime”) is “an intermediate exchange regime is retained” and the “CaM NMR line broadening” value was “a significant loss of signal is observed”.
With “GQTPVKELVSFKWNKYGRPYFS [V5p4, N-terminal peptide 4, residues 310–330 of human TRPV5, C330S]”, the “shift of emission maximum upon CaM addition” value at CaM (calmodulin) [3] is given as “blue shift upon addition of calmodulin”. In addition, at CaM (calmodulin) [2] (setting [7]), the “binding process inferred from curved trajectory of resonances” value is given as “multiple processes take place during V5p4 binding to CaM” and the “CaM binding affinity (words, from NMR)” value is “relatively weak affinity; also recorded: weak but specific binding to CaM”. Besides, at CaM (calmodulin) [2], the “NMR exchange regime” value is given as “fast exchange on the NMR timescale”.
Turning to “GSSANWERLRQGTLRRDLRGIINRGLE [V6p1, TRPV6 C-terminal peptide 1, residues 690–716 of human TRPV6, R690G]”, the “emission maximum upon addition of CaM” value on CaM (calmodulin) [3] (V6p1, W695, CaM titration up to peptide:CaM 1:2, CaM buffer pH 7.0) is given as 324 nm. At CaM (calmodulin) [3], the “emission maximum without CaM (start of shift)” value was 358 nm and the “shift of emission maximum upon CaM addition” value is “blue-shift in emission maximum”. Further, on CaM (calmodulin) [4] (K1 versus K2, sequential binding sites model), the “comparison of the affinities of the two binding events” value was “indistinguishable macroscopic binding constants; also recorded: nearly identical affinities”. The K1 at CaM (calmodulin) [4] (association constant, one binding site model, N allowed to vary, 50 mM KCl, 10 mM CaCl2, 20 mM Tris pH 7.0, 298 K) is 1.3 (±0.3) × 10^7 M^−1. At CaM (calmodulin) [4] (association constant, sequential binding sites model, N fixed to 2, 50 mM KCl, 10 mM CaCl2, 20 mM Tris pH 7.0, 298 K, CaM 15–20 μM in cell), the “K2 (macroscopic binding constant, second event)” value is listed as 5.2 (±1.5) × 10^6 M^−1. Further, on CaM (calmodulin) [4] (association constant, sequential binding sites model, N fixed to 2, 50 mM KCl, 10 mM CaCl2, 20 mM Tris pH 7.0, 298 K, CaM 15–20 μM in cell, measured at least three times), the “K1 (macroscopic binding constant, first event)” value is recorded as 2.2 (±1.7) × 10^6 M^−1. Besides, the ΔS1 at CaM (calmodulin) [4] (one binding site model, N allowed to vary, pH 7.0, 298 K) is −27.7 cal mol^−1 deg^−1. In addition, on CaM (calmodulin) [4] (setting [8]), the ΔS1 is reported as −29.6 cal mol^−1 deg^−1 and the ΔS2 is −33.0 cal mol^−1 deg^−1. Also, at CaM (calmodulin) [2], the “CaM domains involved in binding (overall)” value was “residues from both domains of CaM are involved in the first and the second binding events; also recorded: involves both domains of CaM to a similar extent”.
By Kd is commonly meant the free concentration of one partner at which half of the binding sites on the other are occupied at equilibrium, for simple one-to-one binding. As for TRPV5 587-616 (from UniProt Q9NQA5), the dissociation constant (Kd) in series [5] is 310 nM.
Regarding “VRALLTRRASVSARATGTAFRR [V5p5, N-terminal peptide 5, residues 133–154 of human TRPV5]”, the “CaM binding affinity (words, from NMR)” value at CaM (calmodulin) [2] (setting [7]) is given as “relatively weak affinity; also recorded: weak but specific binding to CaM”. For the same substance, on CaM (calmodulin) [2], the “NMR exchange regime” value is “fast exchange on the NMR timescale”.
Regarding “GLEI PDIFRVGASRYFGKTILGGPFHVI [V5p3, TM23-loop peptide, residues 401–428 of TRPV5, L401G]”, the “solubility” value in series [1] is “only soluble at pH 5.0”. The “CaM domains involved in binding (overall)” value at CaM (calmodulin) [2] is “Residues of both CaM domains were involved in the binding process”.
Take “ELWRAQVVATTVMLERKLPRCL [V5p2, C-terminal peptide 2, residues 591–612 of human TRPV5]”: at CaM (calmodulin) [3] (CaM:peptide 0.75:1 molar ratio), the emission maximum is given as 337 nm. Moreover, the emission maximum on CaM (calmodulin) [3] (further addition of CaM (beyond 0.75:1)) stood at 312 nm. Besides, on CaM (calmodulin) [3], the “emission maximum without CaM (start of shift)” value is listed as 350 nm and the “shift of emission maximum upon CaM addition” value is “blue-shift in emission maximum”. For the same substance, in series [1], the “solubility” value is recorded as “only soluble in H2O; also recorded: limited solubility; also recorded: soluble in water” and the “aggregation / precipitation” value is “in any buffer other than water precipitate was formed; also recorded: tends to aggregate in aqueous buffer solutions”. Also, the “oligomeric state of CaM in complex” value on CaM (calmodulin) [6] (from T1rho) is listed as “(predominantly) monomeric state of CaM”. Further, on CaM (calmodulin) [6] (upfield-shifted amide resonances, H2O with 10 mM 2-mercaptoethanol), the “15N-T1rho of CaM” value is reported as ~ 80 ms. The “CaM NMR line broadening” value on CaM (calmodulin) [2] was “many peaks are significantly broadened, some even beyond detection; also recorded: dramatic line broadening in the CaM NMR spectra”.
